In US10494380B2, “Nitrogen-containing tricyclic derivatives having HIV replication inhibitory activity” (priority 2015, dated 2019):
Like-named read-outs stand apart in the source and are kept apart here.

Key:
Format in all cases: cell-based
HIV (HTLV-IIIB strain) = test: HIV replication inhibition assay (Test Example 1; MT-4 cells, MTT)
Method: HIV (HTLV-IIIB strain) persistent infected human T cell strain Molt-4 clone8 was cultured in RPMI-1640 medium supplemented with 10% fetal bovine serum and the supernatant was filtered, then the virus titer was measured and stored at −80° C. Each anti-human immunodeficiency virus active substance was diluted with the above culture medium to the designated concentration, which was dispensed into 96-well microtiter plate by 50 μL. Next, 100 μL of MT-4 cell suspension (2.5×10^4 cells) was dispensed into each well, then 50 μl of the above HIV-containing supernatant diluted with the above culture medium was added thereto (60 pfu (plaque forming unit)).
Cell mixture was cultured at 37° C. in CO2 incubator for four days, then 30 μL of MTT (3-(4,5-dimethylthiazole-2-yl)-2,5-diphenyltetrazolyum bromide) reagent (5 mg/mL in PBS) was added to all wells followed by incubation for 1 hour. In this step, MTT was reduced to insoluble formazan in living cells. To elute generated formazan 150 μL of the culture supernatant was removed from all wells, then 150 μL of cell lysis solution (10% Triton X-100 and 0.4% (v/v)-HCl containing isopropanol) was added thereto, followed by shaking with a plate mixer. The formazan was measured with micro plate reader at OD: 560 nm and 690 nm (reference wavelength) and the result was compared with the reference wells. EC50 and EC90 mean the compound concentration at which cytotoxicity caused by virus infection is inhibited 50% and 90%, respectively.

[1] = system: T125A mutant virus (HIV-1 NL-432 recombinant molecular clone, IN gene); test: HIV replication inhibition assay against integrase 124/125 mutant virus (Test Example 2)
Summary of the method: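 MT-4 cells (2.5×10^4 per well) infected with 60 pfu of 293T-derived HIV-1 NL-432 clone carrying integrase 124/125 point mutations, in presence of compound, cultured 4 days at 37 °C. Viability by MTT formazan at 560/690 nm; EC50 = concentration inhibiting 50% of virus-induced cytotoxicity.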

HIV = conditions: EC50 in the presence of human serum (25%) versus without human serum, MT-4 cells
Summary of the method: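 Compound is preincubated 1 h at room temperature with human serum, or with medium alone as the serum-free control. MT-4 cells infected with HIV (1 h, 37° C) are added and cultured 4 days. EC50 is determined with and without serum; their ratio gives the potency shift.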

[2] = Human immunodeficiency virus 1, MT4, 96 h, HIV (HTLV-IIIB strain), MT-4 cells, MTT, four days, read-out: EC50
[3] = Human immunodeficiency virus 1, MT4, 96 h, HIV (HTLV-IIIB strain), MT-4 cells, MTT, four days, read-out: EC90
[4] = Human immunodeficiency virus 1, MT4, read-out: EC50 against T125A mutant virus, T125A mutant virus (HIV-1 NL-432 IN gene), MT-4 cells, MTT
[5] = HIV (HTLV-IIIB strain), MT-4 cells, MTT, four days, read-out: EC50
[6] = HIV (HTLV-IIIB strain), MT-4 cells, MTT, four days, read-out: EC90
[7] = T125A mutant virus (HIV-1 NL-432 IN gene), MT-4 cells, MTT, read-out: EC50 against T125A mutant virus
[8] = Human immunodeficiency virus 1, IIIB, MT4, 96 h

| SMILES | EC50 (HIV (HTLV-IIIB strain); [2]) | EC90 (HIV (HTLV-IIIB strain); [3]) | EC50 [1, 4] | Potency shift value (HIV) | EC50 (HIV (HTLV-IIIB strain); Human immunodeficiency virus 1, MT4, 96 h, MT-4 cells, HIV HTLV-IIIB strain, cultured four days, MTT, read-out: EC50) | EC50 (HIV (HTLV-IIIB strain); [5]) | EC90 (HIV (HTLV-IIIB strain); [6]) | EC50 [1, 7] | EC50 (HIV (HTLV-IIIB strain); [8]) | EC90 (HIV (HTLV-IIIB strain); [8]) |
| --- | --- | --- | --- | --- | --- | --- | --- | --- | --- | --- |
| Cc1ccc(-c2c([C@H](OC(C)(C)C)C(=O)O)c(C)c3c4c2cc(C(F)F)n4CCN3C)cc1 [Compound I-024] | 1.6 nM | 2.1 nM | 7.7 nM | 22 |  |  |  |  |  |  |
| [2H]C([2H])([2H])Oc1cnc(N2CCn3c(C)cc4c(-c5ccc(C)cc5)c([C@H](OC(C)(C)C)C(=O)O)c(C)c2c43)nc1 [Compound I-266] | 1.3 nM | 2.1 nM | 3.7 nM | 23 |  |  |  |  |  |  |
| CCN1CCn2c(C)cc3c(-c4ccc(C)cc4)c([C@H](OC(C)(C)C)C(=O)O)c(C)c1c32 [Compound I-009] | 0.98 nM | 1.6 nM | 14 nM | 38 |  |  |  |  |  |  |
| Cc1ccc(-c2c([C@H](OC(C)(C)C)C(=O)O)c(C)c3c4c2cc(C)n4CCN3CCN2CCCO2)cc1 [Compound I-170] |  | 5.2 nM | 18 nM | 3.5 | 3.1 nM |  |  |  |  |  |
| CC(=O)N1CCn2c(C)cc3c(-c4ccc(Cl)cc4)c([C@H](OC(C)(C)C)C(=O)O)c(C)c1c32 [Compound I-025] | 2.3 nM | 3.1 nM | 13 nM | 11 |  |  |  |  |  |  |
| Cc1ccc(-c2c([C@H](OC(C)(C)C)C(=O)O)c(C)c3c4c2cc(C)n4CCN3c2ncc(C3CCN(C)CC3)cn2)cc1 [Compound I-213] |  |  |  | 3.9 |  | 12 nM | 19 nM | 31 nM |  |  |
| Cc1c([C@H](OC(C)(C)C)C(=O)O)c(-c2ccc(Cl)cc2)c2cc(C)n3c2c1N(c1ncc(N2CCOCC2)cn1)CC3 [Compound I-246] | 2.3 nM | 2.5 nM | 4.5 nM | 23 |  |  |  |  |  |  |
| COc1cnc(N2CCn3c(C)cc4c(-c5ccc(C)cc5)c([C@H](OC(C)(C)C)C(=O)O)c(Cl)c2c43)nc1 [Compound I-226] |  |  |  | 26 |  | 1.2 nM | 1.6 nM | 3.6 nM |  |  |
| Cc1ccc(-c2c([C@H](OC(C)(C)C)C(=O)O)c(C)c3c4c2cc(C)n4CCN3c2ncc(OCCN3CCOCC3)cn2)cc1 [Compound I-276] | 1.5 nM | 2.5 nM | 5.1 nM | 5.9 |  |  |  |  |  |  |
| Cc1ccc(-c2c([C@H](OC(C)(C)C)C(=O)O)c(C)c3c4c2cc(C)n4CCN3c2noc(C)n2)cc1 [Compound I-227] | 1 nM | 1.4 nM | 4.1 nM | 15 |  |  |  |  |  |  |
| Cc1c([C@H](OC(C)(C)C)C(=O)O)c(-c2ccc(Cl)cc2)c2cc(C)n3c2c1N(S(=O)(=O)CC[Si](C)(C)C)CC3 [Compound I-029] |  |  | 89 nM | 28 |  |  |  |  | 8.6 nM | 12 nM |
| Cc1ccc(-c2c([C@H](OC(C)(C)C)C(=O)O)c(C)c3c4c2cc(C)n4CCN3c2ncc(N3CCN(C)CC3)cn2)cc1 [Compound I-204] |  |  |  | 3.6 |  | 4.1 nM | 5.8 nM | 9.5 nM |  |  |
| COc1cnc(N2CCn3c(C)cc4c(-c5ccc(C)cc5O)c([C@H](OC(C)(C)C)C(=O)O)c(C)c2c43)nc1 [Compound I-205] |  |  |  | 32 |  | 16 nM | 35 nM | 63 nM |  |  |
| CC(=O)N1CCn2c(C)cc3c(-c4ccc(C)cc4)c([C@H](OC(C)(C)C)C(=O)O)c(C)c1c32 [Compound I-014] | 1.6 nM | 2.2 nM | 15 nM | 8.7 |  |  |  |  |  |  |
| Cc1ccc(-c2c([C@H](OC(C)(C)C)C(=O)O)c(C)c3c4c2cc(CO)n4CCN3C)cc1 [Compound I-022] | 17 nM | 25 nM |  | 4.5 |  |  |  |  |  |  |
| Cc1ccc(-c2c([C@H](OC(C)(C)C)C(=O)O)c(C)c3c4c2cc(C)n4CCN3CCNC2CC2)cc1 [Compound I-028] | 74 nM | 93 nM |  | 2.5 |  |  |  |  |  |  |
| CNCC(=O)N1CCn2c(C)cc3c(-c4ccc(Cl)cc4)c([C@H](OC(C)(C)C)C(=O)O)c(C)c1c32 [Compound I-018] | 83 nM | 100 nM |  | 6.8 |  |  |  |  |  |  |
